Assay results as given in ChEMBL document CHEMBL1201862, “PubChem BioAssay data set” (2004).
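Growth conditions: 96-well plates. Treatment: test compound, 48 hours, 5 concentrations. Analysis: linear interpolation between bracketing concentrations; unreached endpoints set to highest concentration. The concentration for 50% growth inhibition is given as GI50.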 The source made the active and inactive calls. No stated cut-off is given here; in the data, active = GI50 up to about 1.1 µM and inactive = higher.

What was measured:
Experiment in all cases: growth of human tumour cells (NCI), 48 h
[1] = tested on: UO-31
[2] = tested on: HOP-92
[3] = tested on: NCI-H460
[4] = tested on: OVCAR-3
[5] = tested on: SN12C
[6] = tested on: SK-MEL-2
[7] = tested on: SK-MEL-5
[8] = tested on: LOX IMVI
[9] = tested on: NCI-H226
[10] = tested on: U-251
[11] = tested on: HCT-15
[12] = tested on: NCI-H23
[13] = tested on: UACC-62
[14] = tested on: EKVX
[15] = tested on: OVCAR-8
[16] = tested on: HCT-116
[17] = tested on: SW-620
[18] = tested on: TK-10
[19] = tested on: CCRF-CEM
[20] = tested on: HCC 2998

SMILES | GI50 [1] | GI50 [2] | GI50 [3] | GI50 [4] | GI50 [5] | GI50 [6] | GI50 [7] | GI50 [8] | GI50 [9] | GI50 [10] | GI50 [11] [µM] | GI50 [12] | GI50 [13] | GI50 [14] | GI50 [15] | GI50 [16] | GI50 [17] | GI50 [18] | GI50 [19] | GI50 [20]
Nc1ccn(C2OC(CO[PH](=O)OC3C(CO[PH](=O)OC4C(CO[PH](=O)OC5C(CO[PH](=O)OC6C(CO[PH](=O)OC7C(CO[PH](=O)OC8C(CO[PH](=O)OC9C(CO[PH](=O)OC%10C(CO[PH](=O)OC%11C(CO)OC(n%12ccc(N)nc%12=O)C%11(F)F)OC(n%11ccc(N)nc%11=O)C%10(F)F)OC(n%10ccc(N)nc%10=O)C9(F)F)OC(n9ccc(N)nc9=O)C8(F)F)OC(n8ccc(N)nc8=O)C7(F)F)OC(n7ccc(N)nc7=O)C6(F)F)OC(n6ccc(N)nc6=O)C5(F)F)OC(n5ccc(N)nc5=O)C4(F)F)OC(n4ccc(N)nc4=O)C3(F)F)C(O)C2(F)F)c(=O)n1 (centres undefined) | 0.0213 µM (active) | 0.155 µM (active) | 0.0208 µM (active) | 17.1 µM (inactive) | 0.0661 µM (active) | 2.18 µM (inactive) | 1.73 µM (inactive) | 0.0418 µM (active) | 9.44 µM (inactive) | 0.0373 µM (active) | 0.442 | 0.0423 µM (active) | 0.0466 µM (active) | 5.46 µM (inactive) | 0.0156 µM (active) | 0.0134 µM (active) | 0.577 µM (active) | 3.03 µM (inactive) | 0.0172 µM (active) | 0.0805 µM (active)
COc1cc2cc(C(=O)N3CC(CCl)c4ccc(NO)cc43)[nH]c2c(OC)c1OC (centres undefined) | 0.0325 µM (active) | 0.352 µM (active) | 0.0446 µM (active) | 0.257 µM (active) | 0.286 µM (active) | 0.126 µM (active) | 0.0984 µM (active) | 0.164 µM (active) | 0.244 µM (active) | 0.0927 µM (active) | 0.243 | 0.0693 µM (active) | 0.0991 µM (active) | 0.35 µM (active) | 0.184 µM (active) | 0.253 µM (active) | 0.166 µM (active) | 0.313 µM (active) | 0.137 µM (active) | 0.0977 µM (active)
CC/C=C\C/C=C\C/C=C\CCCCCCCC(=O)OC [METHYL LINOLENATE] | > 100 µM (inactive) | > 100 µM (inactive) | > 100 µM (inactive) | > 100 µM (inactive) | > 100 µM (inactive) | > 100 µM (inactive) | > 100 µM (inactive) | 18.9 µM (inactive) | > 100 µM (inactive) | > 100 µM (inactive) | > 100 | > 100 µM (inactive) | > 100 µM (inactive) | > 100 µM (inactive) | > 100 µM (inactive) | 91.6 µM (inactive) | > 100 µM (inactive) |  | 45.8 µM (inactive) | > 100 µM (inactive)
Cc1ccc(C2CC(c3cccc([N+](=O)[O-])c3)=Nc3ccccc3S2)cc1 (centres undefined) | 20.8 µM (inactive) | 7.01 µM (inactive) | 68.5 µM (inactive) | 28.5 µM (inactive) | 32.9 µM (inactive) | 38.3 µM (inactive) | 25.4 µM (inactive) | 21.6 µM (inactive) | > 44.1 µM (inactive) | 27.5 µM (inactive) | 25.5 | 22.9 µM (inactive) | 25.4 µM (inactive) | > 88.1 µM (inactive) | 24.2 µM (inactive) | 13.3 µM (inactive) | 16.1 µM (inactive) | 83.2 µM (inactive) | 23.2 µM (inactive) | 82.2 µM (inactive)
